Experimental data reported in patent US6770596B1, “Fused tricyclic compounds, process for their preparation, and herbicidal compositions containing them” (Ishihara Sangyo Kaisha Ltd., priority 2002, dated 2004).

Experiments:
Type in all cases: in vivo
[1] = test system: redroot pigweed (Amaranthus retroflexus, AMR); experiment: Pre-emerge test, redroot pigweed; conditions: 250 g ai/ha, 14 days after application, rating scale 0-100 (0 no damage, 100 complete death)
Source text: (§1) A standard greenhouse herbicide activity screening system was used to evaluate the herbicidal efficacy and crop safety of these test compounds. Seven broadleaf weed species including redroot pigweed (Amaranthus retroflexus, AMR), velvetleaf (Abutilon theophrasti, ABT), sicklepod (Cassia obtusifolia, CAO), ivyleaf morningglory (Ipomoea hederacea, IPH), lambsquarters (Chenopodium album, CHA), common ragweed (Ambrosia artemisiifolia L., AML), and cocklebur (Xanthium strumariunt, XAS) were used as test species. Four grass weed species including green foxtail (Setaria viridis, SEV), barnyardgrass (Echinachloa crus-galli, ECC), johnsongrass (Sorghum halepense, SOH), and large crabgrass (Digitaria sanguinalis, DIS) were also used. In addition, four crop species, field corn (Zea mays L., var. Dekalb 535, CORN), soybean (Glycine max L., var. Pella 86, SOY), upland rice (Oryza sp., var.Tebonnet, RICE), and wheat (Triticum aestivum) were included all plants were grown in 10 cm square plastic pots which were filled with a sandy loam soil mix.
(§2) For pre-emerge tests, seeds were planted one day prior to application of the test compounds. All test compounds were dissolved in acetone and applied to the test pots in a volume of 187 l/ha. Test materials were applied at rates ranging from 8 g ai/ha to 1000 g ai/ha using a track sprayer equipped with a TJ8001E even flow flat fan spray nozzle. This application simulates a typical commercial field herbicide application.
(§3) At 14 days after application of the test materials, phytotoxicity ratings were recorded. A rating scale of 0-100 was used for both pre and post emerge tests as previously described in Research Methods in Weed Science, 2nd edition, B, Truelove, Ed., Southern Weed Science Society, Auburn University, Auburn, Ala., 1977. Briefly, “0” corresponds to no damage and “100” corresponds to complete death of all plants in the test unit. This scale was used both to determine efficacy against weed species and damage to crop species. Herbicide activity data for various compounds of this invention, which are shown by compound No. in Tables 1-3, are shown in Tables 5 and 6.

[2] = test system: velvetleaf (Abutilon theophrasti, ABT); experiment: Pre-emerge test, velvetleaf; conditions: 250 g ai/ha, 14 days after application, rating scale 0-100 (0 no damage, 100 complete death)
Source text: as §1, §2, §3

[3] = test system: sicklepod (Cassia obtusifolia, CAO); experiment: Pre-emerge test, sicklepod; conditions: 250 g ai/ha, 14 days after application, rating scale 0-100 (0 no damage, 100 complete death)
Source text: as §1, §2, §3

[4] = test system: ivyleaf morningglory (Ipomoea hederacea, IPH); experiment: Pre-emerge test, ivyleaf morningglory; conditions: 250 g ai/ha, 14 days after application, rating scale 0-100 (0 no damage, 100 complete death)
Source text: as §1, §2, §3

[5] = test system: lambsquarters (Chenopodium album, CHA); experiment: Pre-emerge test, lambsquarters; conditions: 250 g ai/ha, 14 days after application, rating scale 0-100 (0 no damage, 100 complete death)
Source text: as §1, §2, §3

[6] = test system: common ragweed (Ambrosia artemisiifolia L., AML); experiment: Pre-emerge test, common ragweed; conditions: 250 g ai/ha, 14 days after application, rating scale 0-100 (0 no damage, 100 complete death)
Source text: as §1, §2, §3

[7] = test system: cocklebur (Xanthium strumariunt, XAS); experiment: Pre-emerge test, cocklebur; conditions: 250 g ai/ha, 14 days after application, rating scale 0-100 (0 no damage, 100 complete death)
Source text: as §1, §2, §3

[8] = test system: green foxtail (Setaria viridis, SEV); experiment: Pre-emerge test, green foxtail; conditions: 250 g ai/ha, 14 days after application, rating scale 0-100 (0 no damage, 100 complete death)
Source text: as §1, §2, §3

[9] = test system: barnyardgrass (Echinachloa crus-galli, ECC); experiment: Pre-emerge test, barnyardgrass; conditions: 250 g ai/ha, 14 days after application, rating scale 0-100 (0 no damage, 100 complete death)
Source text: as §1, §2, §3

[10] = test system: johnsongrass (Sorghum halepense, SOH); experiment: Pre-emerge test, johnsongrass; conditions: 250 g ai/ha, 14 days after application, rating scale 0-100 (0 no damage, 100 complete death)
Source text: as §1, §2, §3

[11] = test system: large crabgrass (Digitaria sanguinalis, DIS); experiment: Pre-emerge test, large crabgrass; conditions: 250 g ai/ha, 14 days after application, rating scale 0-100 (0 no damage, 100 complete death)
Source text: as §1, §2, §3

[12] = test system: field corn (Zea mays L., var. Dekalb 535, CORN); experiment: Pre-emerge test, crop damage field corn; conditions: pre-emerge, 250 g ai/ha, 14 days after application, rating scale 0-100 (0 no damage, 100 complete death)
Source text: as §1, §2, §3

[13] = test system: soybean (Glycine max L., var. Pella 86, SOY); experiment: Pre-emerge test, crop damage soybean; conditions: pre-emerge, 250 g ai/ha, 14 days after application, rating scale 0-100 (0 no damage, 100 complete death)
Source text: as §1, §2, §3

[14] = test system: upland rice (Oryza sp., var.Tebonnet, RICE); experiment: Pre-emerge test, crop damage upland rice; conditions: pre-emerge, 250 g ai/ha, 14 days after application, rating scale 0-100 (0 no damage, 100 complete death)
Source text: as §1, §2, §3

[15] = test system: wheat (Triticum aestivum); experiment: Pre-emerge test, crop damage wheat; conditions: pre-emerge, 250 g ai/ha, 14 days after application, rating scale 0-100 (0 no damage, 100 complete death)
Source text: as §1, §2, §3

[16] = test system: redroot pigweed (Amaranthus retroflexus, AMR); experiment: Post-emerge test, redroot pigweed; conditions: 250 g ai/ha, 14 days after application, rating scale 0-100 (0 no damage, 100 complete death)
Source text: as §1, §2
(§4) For post-emerge tests, seeds were planted 8-21 days prior to the test to allow emergence and good foliage development prior to application of the test substances. At the time of the post-emerge application, plants of all species were usually at the 2-3 leaf stage of development. In the postemerge test, a commercial non-ionic surfactant was also included (0.25% v/v) to enhance wetting of the leaf surfaces of target plants.
as §3

[17] = test system: velvetleaf (Abutilon theophrasti, ABT); experiment: Post-emerge test, velvetleaf; conditions: 250 g ai/ha, 14 days after application, rating scale 0-100 (0 no damage, 100 complete death)
Source text: as §1, §2, §4, §3

[18] = test system: sicklepod (Cassia obtusifolia, CAO); experiment: Post-emerge test, sicklepod; conditions: 250 g ai/ha, 14 days after application, rating scale 0-100 (0 no damage, 100 complete death)
Source text: as §1, §2, §4, §3

[19] = test system: ivyleaf morningglory (Ipomoea hederacea, IPH); experiment: Post-emerge test, ivyleaf morningglory; conditions: 250 g ai/ha, 14 days after application, rating scale 0-100 (0 no damage, 100 complete death)
Source text: as §1, §2, §4, §3

[20] = test system: lambsquarters (Chenopodium album, CHA); experiment: Post-emerge test, lambsquarters; conditions: 250 g ai/ha, 14 days after application, rating scale 0-100 (0 no damage, 100 complete death)
Source text: as §1, §2, §4, §3

[21] = test system: common ragweed (Ambrosia artemisiifolia L., AML); experiment: Post-emerge test, common ragweed; conditions: 250 g ai/ha, 14 days after application, rating scale 0-100 (0 no damage, 100 complete death)
Source text: as §1, §2, §4, §3

[22] = test system: cocklebur (Xanthium strumariunt, XAS); experiment: Post-emerge test, cocklebur; conditions: 250 g ai/ha, 14 days after application, rating scale 0-100 (0 no damage, 100 complete death)
Source text: as §1, §2, §4, §3

[23] = test system: green foxtail (Setaria viridis, SEV); experiment: Post-emerge test, green foxtail; conditions: 250 g ai/ha, 14 days after application, rating scale 0-100 (0 no damage, 100 complete death)
Source text: as §1, §2, §4, §3

[24] = test system: barnyardgrass (Echinachloa crus-galli, ECC); experiment: Post-emerge test, barnyardgrass; conditions: 250 g ai/ha, 14 days after application, rating scale 0-100 (0 no damage, 100 complete death)
Source text: as §1, §2, §4, §3

[25] = test system: johnsongrass (Sorghum halepense, SOH); experiment: Post-emerge test, johnsongrass; conditions: 250 g ai/ha, 14 days after application, rating scale 0-100 (0 no damage, 100 complete death)
Source text: as §1, §2, §4, §3

[26] = test system: large crabgrass (Digitaria sanguinalis, DIS); experiment: Post-emerge test, large crabgrass; conditions: 250 g ai/ha, 14 days after application, rating scale 0-100 (0 no damage, 100 complete death)
Source text: as §1, §2, §4, §3

[27] = test system: field corn (Zea mays L., var. Dekalb 535, CORN); experiment: Post-emerge test, crop damage field corn; conditions: post-emerge, 250 g ai/ha, 14 days after application, rating scale 0-100 (0 no damage, 100 complete death)
Source text: as §1, §2, §4, §3

[28] = test system: soybean (Glycine max L., var. Pella 86, SOY); experiment: Post-emerge test, crop damage soybean; conditions: post-emerge, 250 g ai/ha, 14 days after application, rating scale 0-100 (0 no damage, 100 complete death)
Source text: as §1, §2, §4, §3

[29] = test system: upland rice (Oryza sp., var.Tebonnet, RICE); experiment: Post-emerge test, crop damage upland rice; conditions: post-emerge, 250 g ai/ha, 14 days after application, rating scale 0-100 (0 no damage, 100 complete death)
Source text: as §1, §2, §4, §3

[30] = test system: wheat (Triticum aestivum); experiment: Post-emerge test, crop damage wheat; conditions: post-emerge, 250 g ai/ha, 14 days after application, rating scale 0-100 (0 no damage, 100 complete death)
Source text: as §1, §2, §4, §3

Structure (SMILES)	Pre-emerge Herbicidal Activity AMR (phytotoxicity rating) [1]	Pre-emerge Herbicidal Activity ABT (phytotoxicity rating) [2]	Pre-emerge Herbicidal Activity CAO (phytotoxicity rating) [3]	Pre-emerge Herbicidal Activity IPH (phytotoxicity rating) [4]	Pre-emerge Herbicidal Activity CHA (phytotoxicity rating) [5]	Pre-emerge Herbicidal Activity AML (phytotoxicity rating) [6]	Pre-emerge Herbicidal Activity XAS (phytotoxicity rating) [7]	Pre-emerge Herbicidal Activity SEV (phytotoxicity rating) [8]	Pre-emerge Herbicidal Activity ECC (phytotoxicity rating) [9]	Pre-emerge Herbicidal Activity SOH (phytotoxicity rating) [10]	Pre-emerge Herbicidal Activity DIS (phytotoxicity rating) [11]	Pre-emerge crop damage CORN (phytotoxicity rating) [12]	Pre-emerge crop damage SOY (phytotoxicity rating) [13]	Pre-emerge crop damage RICE (phytotoxicity rating) [14]	Pre-emerge crop damage WHEAT (phytotoxicity rating) [15]	Post-emerge Herbicidal Activity AMR (phytotoxicity rating) [16]	Post-emerge Herbicidal Activity ABT (phytotoxicity rating) [17]	Post-emerge Herbicidal Activity CAO (phytotoxicity rating) [18]	Post-emerge Herbicidal Activity IPH (phytotoxicity rating) [19]	Post-emerge Herbicidal Activity CHA (phytotoxicity rating) [20]	further results
O=C1CN2C(=O)COc3cc(F)c(-c4ncc(C(F)(F)F)cc4Cl)c(c32)N1 [1-63]	100	100	99	100	100	100	100	100	100	100	100	100	50	100	90	100	100	50	100	100	Post-emerge Herbicidal Activity AML (phytotoxicity rating) [21]: 45; Post-emerge Herbicidal Activity XAS (phytotoxicity rating) [22]: 100; Post-emerge Herbicidal Activity SEV (phytotoxicity rating) [23]: 100; Post-emerge Herbicidal Activity ECC (phytotoxicity rating) [24]: 100; Post-emerge Herbicidal Activity SOH (phytotoxicity rating) [25]: 99; Post-emerge Herbicidal Activity DIS (phytotoxicity rating) [26]: 80; Post-emerge crop damage CORN (phytotoxicity rating) [27]: 20; Post-emerge crop damage SOY (phytotoxicity rating) [28]: 100; Post-emerge crop damage RICE (phytotoxicity rating) [29]: 75; Post-emerge crop damage WHEAT (phytotoxicity rating) [30]: 30
Cn1nc(-c2c(F)cc3c4c2NC(=O)C(Cl)N4C(=O)CO3)c(Cl)c1OC(F)F (stereo not drawn) [1-79]	100	75	60	60	100	99	65	15	35	50	80	30	40	30	30	70	75	0	60	65	Post-emerge Herbicidal Activity AML (phytotoxicity rating) [21]: 80; Post-emerge Herbicidal Activity XAS (phytotoxicity rating) [22]: 0; Post-emerge Herbicidal Activity SEV (phytotoxicity rating) [23]: 65; Post-emerge Herbicidal Activity ECC (phytotoxicity rating) [24]: 25; Post-emerge Herbicidal Activity SOH (phytotoxicity rating) [25]: 0; Post-emerge Herbicidal Activity DIS (phytotoxicity rating) [26]: 0; Post-emerge crop damage CORN (phytotoxicity rating) [27]: 0; Post-emerge crop damage SOY (phytotoxicity rating) [28]: 0; Post-emerge crop damage RICE (phytotoxicity rating) [29]: 0; Post-emerge crop damage WHEAT (phytotoxicity rating) [30]: 0
